For the test, the target named is canine TRPM8 (Canis lupus familiaris, UniProt Q1A7N1). Nature of the test: In Vitro Canine TRPM8 Functional Assay (Ca2+ fluorescence, icilin activation). The test is classed as cell-based. Particulars: for IC50: HEK293 cells stably expressing canine TRPM8, icilin activation, eight-point dose-response, read-out: IC50; for inhibition at 0.2 µM / % Inh @ 0.2 (μM): compound at 0.2 μM, canine TRPM8, icilin activation; for inhibition at 0.2 µM: read-out: % Inh @ 0.2. The method, boiled down:
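Canine TRPM8 stably expressed in HEK293; compound added 5 min before icilin challenge (~80% max response), with fluorescent Ca2+ signal tracked throughout.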

A word on the IC50: it is the concentration that inhibits the measured activity by half.

Chain of canine TRPM8 (Q1A7N1 1-1104): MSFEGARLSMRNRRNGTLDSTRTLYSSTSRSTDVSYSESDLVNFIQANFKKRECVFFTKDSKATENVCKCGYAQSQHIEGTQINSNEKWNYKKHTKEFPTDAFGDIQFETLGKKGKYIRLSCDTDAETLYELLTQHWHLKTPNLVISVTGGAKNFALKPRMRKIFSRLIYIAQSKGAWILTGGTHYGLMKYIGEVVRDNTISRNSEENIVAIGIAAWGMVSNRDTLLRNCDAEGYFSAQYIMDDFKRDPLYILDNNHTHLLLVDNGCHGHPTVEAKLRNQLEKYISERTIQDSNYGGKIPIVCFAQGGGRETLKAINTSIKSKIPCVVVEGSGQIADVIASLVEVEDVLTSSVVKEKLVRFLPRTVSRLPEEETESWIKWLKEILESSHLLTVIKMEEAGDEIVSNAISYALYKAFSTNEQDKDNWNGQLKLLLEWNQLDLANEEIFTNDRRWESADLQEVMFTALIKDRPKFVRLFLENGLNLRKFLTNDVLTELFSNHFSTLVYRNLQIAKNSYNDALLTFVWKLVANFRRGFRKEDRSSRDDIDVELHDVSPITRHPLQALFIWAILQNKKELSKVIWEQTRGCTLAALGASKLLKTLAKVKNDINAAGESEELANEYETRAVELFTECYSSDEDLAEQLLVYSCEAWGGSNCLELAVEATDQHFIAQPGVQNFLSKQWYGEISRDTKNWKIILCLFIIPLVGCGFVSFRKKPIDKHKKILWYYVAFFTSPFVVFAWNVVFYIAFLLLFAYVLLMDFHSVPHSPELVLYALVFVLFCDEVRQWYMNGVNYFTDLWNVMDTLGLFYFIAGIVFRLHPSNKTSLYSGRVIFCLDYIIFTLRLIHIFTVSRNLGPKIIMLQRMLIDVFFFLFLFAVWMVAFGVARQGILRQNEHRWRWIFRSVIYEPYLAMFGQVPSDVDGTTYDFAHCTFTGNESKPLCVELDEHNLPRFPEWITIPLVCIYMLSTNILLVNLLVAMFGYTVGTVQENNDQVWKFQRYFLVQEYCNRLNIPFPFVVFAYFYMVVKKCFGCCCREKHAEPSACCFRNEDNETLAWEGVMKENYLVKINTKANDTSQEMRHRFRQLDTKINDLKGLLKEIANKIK

Take `Cc1c(N(Cc2ccc(F)c(C(F)(F)F)c2)S(=O)(=O)c2cnccc2N(C)C)sc2ccccc12` [Compound 360, N-(3-Methyl-benzo[b]thiophen-2-yl)-N-(4-fluoro-3-trifluoromethyl-benzyl)-4-dimethylamino-pyridin-3-yl-sulfonamide]: the IC50 was 41 nM.

Regarding `Cc1c(N(Cc2ccc(F)c(C(F)(F)F)c2)S(=O)(=O)c2ccc(N(C)C)nc2)sc2ccccc12` [Compound 360], the inhibition at 0.2 µM amounted to 92%.

Take `CS(=O)(=O)CS(=O)(=O)N(Cc1ccc(F)c(C(F)(F)F)c1)c1cc2ccccc2s1` [Compound 362, N-(Benzo[b]thiophen-2-yl)-N-(4-fluoro-3-trifluoromethyl-benzyl)-C-methanesulfonyl-methanesulfonamide]: the inhibition at 0.2 µM was found to be 67%.

Take `CCCCN(c1sc2ccccc2c1C)S(C)(=O)=O` [Compound 363, N-(Butyl)-N-(3-methyl-benzo[b]thiophen-2-yl)-methanesulfonamide]: the IC50 was 51 nM and the inhibition at 0.2 µM worked out at 84%.

`Cc1c(N(CCC(F)(F)F)S(C)(=O)=O)sc2ccccc12` [Compound 364, N-(3-Methyl-benzo[b]thiophen-2-yl)-N-(3,3,3-trifluoro-propyl)-methanesulfonamide]: the IC50 worked out at 44 nM and the inhibition at 0.2 µM was determined as 77%.

Consider `Cc1c(N(CC2CC2)S(C)(=O)=O)sc2ccccc12` [Compound 365, N-(Cyclopropylmethyl)-N-(3-methyl-benzo[b]thiophen-2-yl)-methanesulfonamide], for which the inhibition at 0.2 µM worked out at 38%.

Regarding `Cc1c(N(CCOC(C)(C)C)S(C)(=O)=O)sc2ccccc12` [Compound 366, N-(2-tert-Butoxy-ethyl)-N-(3-methyl-benzo[b]thiophen-2-yl)-methanesulfonamide], the IC50 is 40 nM and the inhibition at 0.2 µM worked out at 85%.

On to `Cc1c(N(Cc2ccc(F)c(F)c2)S(C)(=O)=O)sc2ccccc12` [Compound 367, N-(3,4-Difluoro-benzyl)-N-(3-methyl-benzo[b]thiophen-2-yl)-methanesulfonamide], for which the IC50 came out at 10 nM and the inhibition at 0.2 µM came out at 91%.

For the compound `Cc1c(N(Cc2ccc(F)c(C(F)(F)F)c2)S(C)(=O)=O)sc2ccccc12` [Compound 368, N-(4-Fluoro-3-trifluoromethyl-benzyl)-N-(3-methyl-benzo[b]thiophen-2-yl)-methanesulfonamide], the IC50 is 18 nM and the inhibition at 0.2 µM turned out to be 96%.

In the case of `Cc1c(N(Cc2ccc(OC(F)(F)F)cc2)S(C)(=O)=O)sc2ccccc12` [Compound 369, N-(3-Methyl-benzo[b]thiophen-2-yl)-N-(4-trifluoromethoxy-benzyl)-methanesulfonamide], the IC50 stood at 18 nM and the inhibition at 0.2 µM was determined as 98%.

In the case of `N#Cc1cccc(S(=O)(=O)N(Cc2ccc(F)c(C(F)(F)F)c2)c2cc3ccccc3s2)c1` [Compound 370, N-(Benzo[b]thiophen-2-yl)-N-(4-fluoro-3-trifluoromethyl-benzyl)-3-cyano-benzenesulfonamide], the inhibition at 0.2 µM turned out to be 29%.

For `Cc1c(N(CCCC(F)(F)F)S(=O)(=O)c2ccc(C(C)(C)O)cc2)sc2ccccc12` [Compound 371, N-(3-Methyl-benzo[b]thiophen-2-yl)-N-(4,4,4-trifluoro-butyl)-4-(1-hydroxy-1-methyl-ethyl)-benzenesulfonamide], the IC50 was found to be 9 nM and the inhibition at 0.2 µM is 94%.

Turning to `Cc1c(N(CCCC(F)(F)F)S(=O)(=O)c2ccc(Oc3ccncc3)cc2)sc2ccccc12` [Compound 372, N-(3-Methyl-benzo[b]thiophen-2-yl)-N-(4,4,4-trifluoro-butyl)-4-(pyridin-4-yloxy)-benzenesulfonamide], the IC50 is 27 nM and the inhibition at 0.2 µM was 91%.

On to `Cc1c(N(CCCC(F)(F)F)S(=O)(=O)c2ccc(Oc3cccnc3)cc2)sc2ccccc12` [Compound 373, N-(3-Methyl-benzo[b]thiophen-2-yl)-N-(4,4,4-trifluoro-butyl)-4-(pyridin-3-yloxy)-benzenesulfonamide], for which the IC50 came out at 123 nM and the inhibition at 0.2 µM came out at 77%.

For `Cc1c(N(Cc2ccc(F)c(C(F)(F)F)c2)S(=O)(=O)c2ccc(C(C)(C)O)cc2)sc2ccccc12` [Compound 374, N-(3-Methyl-benzo[b]thiophen-2-yl)-N-(4-fluoro-3-trifluoromethyl-benzyl)-4-(1-hydroxy-1-methyl-ethyl)-benzenesulfonamide], the IC50 is 4 nM and the inhibition at 0.2 µM is 89%.

On to `COC(=O)c1cccc(S(=O)(=O)N(Cc2ccc(F)c(C(F)(F)F)c2)c2sc3cc(F)ccc3c2C)c1` [Compound 375, N-(6-Fluoro-3-methyl-benzo[b]thiophen-2-yl)-N-(4-fluoro-3-trifluoromethyl-benzyl)-3-carbomethoxy-benzenesulfonamide], for which the IC50 is 37 nM and the inhibition at 0.2 µM worked out at 79%.

On to `Cc1c(N(Cc2ccc(F)c(C(F)(F)F)c2)S(=O)(=O)c2cccc(C(=O)O)c2)sc2cc(F)ccc12` [Compound 376, N-(6-Fluoro-3-methyl-benzo[b]thiophen-2-yl)-N-(4-fluoro-3-trifluoromethyl-benzyl)-3-carboxy-benzenesulfonamide], for which the IC50 turned out to be 26 nM and the inhibition at 0.2 µM was determined as 85%.

Consider `CSc1ncccc1S(=O)(=O)N(Cc1ccc(F)c(C(F)(F)F)c1)c1sc2ccccc2c1C` [Compound 377, N-(3-Methyl-benzo[b]thiophen-2-yl)-N-(4-fluoro-3-trifluoromethyl-benzyl)-2-thiomethyl-pyridin-3-yl-sulfonamide], for which the “% Inh @ 0.2 (μM)” value stood at 65%.

Regarding `COC(=O)c1cccc(CN(c2cc3ccccc3s2)S(=O)(=O)c2cccnc2)c1` [Compound 379, N-(Benzo[b]thiophen-2-yl)-N-(3-carbomethoxy-benzyl)-pyridin-3-ylsulfonamide], the inhibition at 0.2 µM was 54%.

Regarding `COC(=O)c1ccc(CN(c2cc3ccccc3s2)S(=O)(=O)c2cccnc2)cc1` [Compound 380, N-(Benzo[b]thiophen-2-yl)-N-(4-carbomethoxy-benzyl)-pyridin-3-ylsulfonamide], the inhibition at 0.2 µM was 24%.

On to `O=S(=O)(c1ccccc1)N(Cc1ccc(F)c(C(F)(F)F)c1)c1sc2ccccc2c1CN1CCCC1` [Compound 381, N-(4-Fluoro-3-trifluoromethyl-benzyl)-N-(3-pyrrolidin-1-yl-methyl-benzo[b]thiophen-2-yl)-benzenesulfonamide], for which the “% Inh @ 0.2 (μM)” value is given as 20%.

In the case of `CCCCN(c1cc2ccccc2s1)S(C)(=O)=O` [Compound 382, N-(Benzo[b]thiophen-2-yl)-N-(butyl)-methanesulfonamide], the inhibition at 0.2 µM was 17%.

As to `O=S(=O)(c1cccnc1)N(CCCC(F)(F)F)c1cc2ccccc2s1` [Compound 383, N-(Benzo[b]thiophen-2-yl)-N-(4,4,4-trifluoro-butyl)-pyridin-3-ylsulfonamide], the inhibition at 0.2 µM was 49%.

On to `Cc1c(N(CCCC(F)(F)F)S(=O)(=O)c2ccc3[nH]c(=O)oc3c2)sc2ccccc12` [Compound 384, N-(3-Methyl-benzo[b]thiophen-2-yl)-N-(4,4,4-trifluoro-butyl)-2-oxo-2,3-dihydro-benzooxazol-6-yl-sulfonamide], for which the IC50 was 17 nM and the inhibition at 0.2 µM was 96%.

As for `CC(=O)c1c(N(CCC(F)(F)F)S(=O)(=O)c2ccc(C(=O)O)cc2)sc2ccccc12` [Compound 385, N-(3-Acetyl-benzo[b]thiophen-2-yl)-N-(3,3,3-trifluoro-propyl)-4-carboxy-benzenesulfonamide], the inhibition at 0.2 µM is 54%.

Regarding `CC(=O)c1c(N(Cc2ccc(F)c(C(F)(F)F)c2)S(=O)(=O)c2ccc(Br)cc2)sc2ccccc12` [Compound 386, N-(3-Acetyl-benzo[b]thiophen-2-yl)-4-bromo-N-(4-fluoro-3-trifluoromethyl-benzyl)benzenesulfonamide], the IC50 is 12.8 nM and the inhibition at 0.2 µM was determined as 101%.

Take `CC(=O)c1c(N(Cc2ccc(F)c(C(F)(F)F)c2)S(=O)(=O)c2ccc(C#N)cc2)sc2ccccc12` [Compound 387, N-(3-Acetyl-benzo[b]thiophen-2-yl)-4-cyano-N-(4-fluoro-3-trifluoromethyl-benzyl)-benzenesulfonamide]: the IC50 stood at 31 nM and the inhibition at 0.2 µM worked out at 98%.

On to `CC(C)(O)c1c(N(Cc2ccc(F)c(C(F)(F)F)c2)S(=O)(=O)c2ccc(Br)cc2)sc2ccccc12` [Compound 388], for which the IC50 was found to be 19 nM and the “% Inh @ 0.2 (μM)” value was determined as 97%.

For the compound `CC(=O)c1ccc(S(=O)(=O)N(Cc2ccc(F)c(C(F)(F)F)c2)c2sc3ccccc3c2C(C)(C)O)cc1` [Compound 389, 4-Acetyl-N-(4-fluoro-3-trifluoromethylbenzyl)-N-(3-(1-hydroxy-1-methyl-ethyl)-benzo[b]thiophen-2-yl)-benzenesulfonamide], the IC50 is 10 nM and the inhibition at 0.2 µM stood at 97%.

As for `CCN(c1sc2ccccc2c1Br)S(=O)(=O)c1ccc(C(=O)O)cc1` [Compound 390, N-(3-Bromo-benzo[b]thiophen-2-yl)-N-(ethyl)-4-carboxy-benzenesulfonamide], the inhibition at 0.2 µM was 69%.

For the compound `CCCN(c1sc2ccccc2c1Br)S(=O)(=O)c1ccc(C(=O)O)cc1` [Compound 391, N-(3-Bromo-benzo[b]thiophen-2-yl)-N-(propyl)-4-carboxy-benzenesulfonamide], the IC50 came to 47 nM and the inhibition at 0.2 µM was 93%.

On to `CCCCCN(c1sc2ccccc2c1Br)S(=O)(=O)c1ccc(C(=O)O)cc1` [Compound 392, N-(3-Bromo-benzo[b]thiophen-2-yl)-N-(pentyl)-4-carboxy-benzenesulfonamide], for which the IC50 turned out to be 7 nM and the inhibition at 0.2 µM was determined as 93%.

Values taken from US9434711B2 (Janssen Pharmaceutica, NV, priority 2007, dated 2016).
